Measurements taken from PMC9005681, “Use of AD Informer Set compounds to explore validity of novel targets in Alzheimer's disease pathology” (Alzheimer's & Dementia : Translational Research & Clinical …, 2022).

Key:
Assay in all cases: PDSP GPCR panel primary binding assays at 10 μM
[1] = target: T1, cloned human or rodent CNS receptors, channels, and transporters (PDSP panel) (Homo sapiens, UniProt P08173); details: M4, primary assay; for Mean %: mean inhibition; for Inhibition 1: replicate 1; for Inhibition 2: replicate 2; for Inhibition 3: replicate 3; for Inhibition 4: replicate 4
T1 construct: expressed in transfected cells
T1 sequence (P08173 1-479): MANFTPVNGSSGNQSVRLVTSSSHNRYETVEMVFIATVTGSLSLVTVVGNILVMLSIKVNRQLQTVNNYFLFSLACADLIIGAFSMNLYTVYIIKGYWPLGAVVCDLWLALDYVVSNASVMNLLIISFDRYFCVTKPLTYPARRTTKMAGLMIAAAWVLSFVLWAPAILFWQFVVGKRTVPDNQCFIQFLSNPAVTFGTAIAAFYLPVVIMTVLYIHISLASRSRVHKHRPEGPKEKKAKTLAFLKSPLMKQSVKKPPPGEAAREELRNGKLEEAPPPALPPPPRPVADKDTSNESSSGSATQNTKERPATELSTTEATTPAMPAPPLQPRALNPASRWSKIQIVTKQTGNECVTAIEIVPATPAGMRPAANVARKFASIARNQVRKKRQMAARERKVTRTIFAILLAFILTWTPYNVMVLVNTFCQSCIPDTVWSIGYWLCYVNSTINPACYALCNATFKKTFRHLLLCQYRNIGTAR
How it was run: (§1)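 Each compound is first screened once at 10 μM, in quadruplicate, for radioligand displacement. Where mean displacement passes 50%, an 11-point dose-response in triplicate follows at that target, except at H3, PBR and GABAA.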

[2] = target: T2, cloned human or rodent CNS receptors, channels, and transporters (PDSP panel) (Homo sapiens, UniProt P18089); details: Alpha2B, primary assay; for Mean %: mean inhibition; for Inhibition 1: replicate 1; for Inhibition 2: replicate 2; for Inhibition 3: replicate 3; for Inhibition 4: replicate 4
T2 construct: expressed in transfected cells
T2 sequence (P18089 1-450): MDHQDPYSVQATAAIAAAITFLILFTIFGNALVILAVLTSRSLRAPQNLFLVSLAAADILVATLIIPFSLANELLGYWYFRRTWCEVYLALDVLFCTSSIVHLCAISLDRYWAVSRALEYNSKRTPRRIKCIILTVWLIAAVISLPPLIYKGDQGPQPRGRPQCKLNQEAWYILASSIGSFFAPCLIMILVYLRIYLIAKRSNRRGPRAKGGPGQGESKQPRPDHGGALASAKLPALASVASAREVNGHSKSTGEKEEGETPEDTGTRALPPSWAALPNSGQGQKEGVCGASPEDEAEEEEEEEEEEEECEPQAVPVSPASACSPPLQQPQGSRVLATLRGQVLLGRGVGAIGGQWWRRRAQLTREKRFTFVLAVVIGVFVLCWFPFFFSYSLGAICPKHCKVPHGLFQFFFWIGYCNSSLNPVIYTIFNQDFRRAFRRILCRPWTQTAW
How it was run: as §1

[3] = target: T3, cloned human or rodent CNS receptors, channels, and transporters (PDSP panel) (Homo sapiens, UniProt P20309); details: M3, primary assay; for Mean %: mean inhibition; for Inhibition 1: replicate 1; for Inhibition 2: replicate 2; for Inhibition 3: replicate 3; for Inhibition 4: replicate 4
T3 construct: expressed in transfected cells
T3 sequence (P20309 whole entry): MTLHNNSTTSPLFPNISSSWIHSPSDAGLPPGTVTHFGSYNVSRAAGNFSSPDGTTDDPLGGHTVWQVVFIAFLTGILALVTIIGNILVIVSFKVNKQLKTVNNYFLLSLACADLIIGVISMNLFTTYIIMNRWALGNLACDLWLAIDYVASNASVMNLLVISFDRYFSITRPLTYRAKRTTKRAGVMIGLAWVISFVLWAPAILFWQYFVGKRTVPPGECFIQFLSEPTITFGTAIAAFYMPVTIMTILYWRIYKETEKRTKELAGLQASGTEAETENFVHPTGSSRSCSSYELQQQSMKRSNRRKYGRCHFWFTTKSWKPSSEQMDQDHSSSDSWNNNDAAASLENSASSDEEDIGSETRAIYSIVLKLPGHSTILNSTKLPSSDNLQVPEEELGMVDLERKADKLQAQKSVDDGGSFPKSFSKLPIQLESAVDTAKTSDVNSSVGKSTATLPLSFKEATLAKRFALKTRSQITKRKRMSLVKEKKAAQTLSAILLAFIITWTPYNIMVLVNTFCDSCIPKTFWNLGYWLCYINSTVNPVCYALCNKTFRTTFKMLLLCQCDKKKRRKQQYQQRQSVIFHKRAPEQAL
How it was run: as §1

[4] = target: T4, cloned human or rodent CNS receptors, channels, and transporters (PDSP panel) (Homo sapiens, UniProt P25100); details: Alpha1D, primary assay; for Mean %: mean inhibition; for Inhibition 1: replicate 1; for Inhibition 2: replicate 2; for Inhibition 3: replicate 3; for Inhibition 4: replicate 4
T4 construct: expressed in transfected cells
T4 sequence (P25100 1-572): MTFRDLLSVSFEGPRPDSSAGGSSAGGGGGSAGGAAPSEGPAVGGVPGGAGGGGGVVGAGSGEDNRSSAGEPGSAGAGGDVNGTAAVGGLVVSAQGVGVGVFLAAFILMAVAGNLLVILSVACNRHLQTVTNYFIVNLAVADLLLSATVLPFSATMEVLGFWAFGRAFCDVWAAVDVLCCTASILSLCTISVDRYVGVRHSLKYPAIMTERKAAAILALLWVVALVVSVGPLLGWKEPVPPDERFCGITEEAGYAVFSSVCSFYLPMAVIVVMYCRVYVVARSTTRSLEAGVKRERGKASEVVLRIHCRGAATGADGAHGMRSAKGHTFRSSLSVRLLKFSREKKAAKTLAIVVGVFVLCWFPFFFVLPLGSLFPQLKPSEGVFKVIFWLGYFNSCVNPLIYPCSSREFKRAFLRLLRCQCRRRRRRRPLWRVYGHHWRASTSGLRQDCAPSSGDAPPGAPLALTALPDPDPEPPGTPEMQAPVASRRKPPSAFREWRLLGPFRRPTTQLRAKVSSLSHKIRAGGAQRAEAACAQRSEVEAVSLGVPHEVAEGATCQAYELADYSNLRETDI
How it was run: as §1

[5] = target: T5, cloned human or rodent CNS receptors, channels, and transporters (PDSP panel) (Homo sapiens, UniProt P35368); details: Alpha1B, primary assay; for Mean %: mean inhibition; for Inhibition 1: replicate 1; for Inhibition 2: replicate 2; for Inhibition 3: replicate 3; for Inhibition 4: replicate 4
T5 construct: expressed in transfected cells
T5 sequence (P35368 1-520): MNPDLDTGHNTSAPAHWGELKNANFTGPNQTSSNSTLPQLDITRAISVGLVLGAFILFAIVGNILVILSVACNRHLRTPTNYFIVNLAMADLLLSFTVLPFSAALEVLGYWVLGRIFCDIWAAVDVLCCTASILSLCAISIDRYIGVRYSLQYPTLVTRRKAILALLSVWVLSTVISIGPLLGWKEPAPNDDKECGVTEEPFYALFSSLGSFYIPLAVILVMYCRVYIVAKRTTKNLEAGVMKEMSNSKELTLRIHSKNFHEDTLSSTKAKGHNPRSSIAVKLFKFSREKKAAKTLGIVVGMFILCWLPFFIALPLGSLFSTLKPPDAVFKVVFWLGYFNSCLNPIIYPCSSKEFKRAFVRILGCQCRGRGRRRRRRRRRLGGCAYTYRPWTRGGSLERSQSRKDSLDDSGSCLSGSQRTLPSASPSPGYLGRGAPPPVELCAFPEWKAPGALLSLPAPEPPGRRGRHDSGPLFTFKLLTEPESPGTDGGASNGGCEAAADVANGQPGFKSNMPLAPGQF
How it was run: as §1

## CC(=O)N1CCC(NC(=O)NC23CC4CC(CC(C4)C2)C3)CC1 [UNC10302683A, AR9281]
[1]
  Mean %: 12.52%
  Inhibition 1: 4.48%
  Inhibition 2: 16.88%
  Inhibition 3: 4.25%
  Inhibition 4: 24.46%
[2]
  Mean %: 16.32%
  Inhibition 1: 9.7%
  Inhibition 2: 20.78%
  Inhibition 3: 26.1%
  Inhibition 4: 8.7%
[3]
  Mean %: -3.62%
  Inhibition 1: -3%
  Inhibition 2: -3.76%
  Inhibition 3: 2.67%
  Inhibition 4: -10.4%
[4]
  Mean %: -8.81%
  Inhibition 1: 7.07%
  Inhibition 2: -12.11%
  Inhibition 3: -12.82%
  Inhibition 4: -17.37%
[5]
  Mean %: 5.33%
  Inhibition 1: 32.86%
  Inhibition 2: -1.86%
  Inhibition 3: 1.69%
  Inhibition 4: -11.37%

## O=C(NC1CC1)C(=O)C(Cc1ccccc1)NC(=O)[C@H]1CCC(=O)N1Cc1ccccc1 (some centres unmarked) [UNC10302676A, ABT-957 (Alicapistat)]
[1]
  Mean %: -0.92%
  Inhibition 1: -9.99%
  Inhibition 2: -2.41%
  Inhibition 3: -11.37%
  Inhibition 4: 20.1%
[2]
  Mean %: 8.48%
  Inhibition 1: 16.01%
  Inhibition 2: 17.34%
  Inhibition 3: -9.53%
  Inhibition 4: 10.08%
[3]
  Mean %: -7.1%
  Inhibition 1: 3.98%
  Inhibition 2: -16.69%
  Inhibition 3: -10.47%
  Inhibition 4: -5.21%
[4]
  Mean %: -2.1%
  Inhibition 1: 4.8%
  Inhibition 2: -9.7%
  Inhibition 3: -4.72%
  Inhibition 4: 1.24%
[5]
  Mean %: -8.47%
  Inhibition 1: -8.91%
  Inhibition 2: -13.01%
  Inhibition 3: -14.75%
  Inhibition 4: 2.78%
